Experimental findings from patent US12252524B2, “GIP/GLP1 co-agonist compounds” (Eli Lilly and Company, priority 2018, dated 2025) are described below.

Where two headings read alike, the source gives them in different places. Numbered stars: 1 amine (or outer) side, 2 acyl side, 3 side chain; on linkers, the order of the positions; unused ones are H or OH. Square brackets hold non-standard residues; d marks the D form. Side chains are listed from the residue outwards. Peptide text beside a SMILES is read from it. * marks the point of attachment. C20 diacid = O=C(O)CCCCCCCCCCCCCCCCCCC(=O)*; C18 diacid = O=C(O)CCCCCCCCCCCCCCCCC(=O)*; αMePhe(2-F) = C[C@](N)(Cc1ccccc1F)C(=O)O; γGlu = O=C(O)[C@H](CCC(=O)[*:2])N[*:1]; αMeF = C[C@](N)(Cc1ccccc1)C(=O)O; αMeL = CC(C)C[C@](C)(N)C(=O)O; AEEA = NCCOCCOCC(=O)O; Aib = CC(C)(N)C(=O)O

One data set concerns the target T1, human Gcg receptor (Homo sapiens, UniProt P47871).
T1 construct: expressed in transfected cells; crude membranes
The experiment in a line: [125I]-Glucagon binding (SPA), human Gcg receptor. The method, boiled down:
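Cell pellets were lysed in hypotonic Tris buffer, pH 7.5, homogenized, and spun at low then high speed to give crude membranes. Ki was derived from the fitted IC50.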

The target of another data set is T2, human GIP receptor (Homo sapiens, UniProt P48546).
T2 construct: expressed in transfected cells; crude membranes
T2 sequence (P48546 22-466): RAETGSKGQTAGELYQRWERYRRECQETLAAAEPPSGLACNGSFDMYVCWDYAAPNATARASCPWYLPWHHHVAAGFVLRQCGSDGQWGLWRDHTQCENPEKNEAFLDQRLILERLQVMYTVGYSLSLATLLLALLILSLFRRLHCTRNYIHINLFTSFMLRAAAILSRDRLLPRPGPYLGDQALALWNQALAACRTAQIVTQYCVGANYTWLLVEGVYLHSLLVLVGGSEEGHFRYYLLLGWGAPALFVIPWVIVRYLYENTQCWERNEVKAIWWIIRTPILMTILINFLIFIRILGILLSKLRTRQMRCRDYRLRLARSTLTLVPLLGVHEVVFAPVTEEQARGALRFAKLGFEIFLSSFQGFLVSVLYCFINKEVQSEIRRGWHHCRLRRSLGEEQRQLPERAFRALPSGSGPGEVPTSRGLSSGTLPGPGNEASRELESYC
The experiment in a line: [125I]-GIP binding (SPA), human GIP receptor.

For data set [1], the target named is human GLP-1 receptor (GLP-1R) (Homo sapiens, UniProt P43220). Kind of data set: cAMP pharmacological functional assay in presence of casein, hGLP-1R. The class given is cell-based.
The target in data set [2] is T3, gastric inhibitory peptide receptor (GIPR) (Homo sapiens, UniProt P48546).
T3 sequence (P48546 22-466): T2 sequence (P48546 22-466)
The experiment in a line: cAMP pharmacological functional assay in presence of casein, hGIPR. The class given is cell-based.

Data set [3] is described as follows: Body weight in diet-induced obese C57/B16 mice, 14-day treatment. The class given is in vivo, C57/B16 diet-induced obese (DIO) male mice. The following applies: s.c., QD, DIO mice. How it is done: C57/B16 diet-induced obese (DIO) male mice (Taconic, Germantown, NY) weighing 41-50 g are used. Animals are individually housed in a temperature-controlled (24° C.) facility with a 12 hour light/dark photoperiod (lights off at 10:00 AM and lights on at 10:00 PM), with free access to food and water. After 2 week acclimatization to the facility, mice are randomized to treatment groups (n=6/group) based on body weight so each group has similar starting mean body weight.
Mice are treated with either vehicle (40 mM Tris-HCl at pH 8.0) or several peptides between the dose ranges of 0.03 nmol/kg to 10 nmol/kg. Treatments are subcutaneously administered to ad libitum fed DIO mice 30-90 minutes prior to the onset of the dark cycle daily (QD) for 14 days. During the course of the study, body weight and food intake are monitored daily. […]
[formula] “0” dose group represents the vehicle-treated mice during each study. All data are expressed as mean±SEM of 5-6 mice per group. Statistical analyses are assessed by one-way ANOVA followed by Dunnett's multiple comparison test to compare treatment groups to ‘0’, dose (vehicle). *Significant differences are identified at p<0.05. Body weight change after treatment with Example compounds after 15 days. “Δ from vehicle” refers to difference between body weight at day 15 between test and vehicle groups. “% n change” refers to percent decrease in body weight between days 1 and 15 in test groups. Percent decrease in body weight for animals receiving vehicle is recorded, and is less than about 100 in each study.

For data set [4], the target named is T4, human GLP-1R (Homo sapiens, UniProt P43220). The experiment in a line: [125I]-GLP-1 binding (SPA), human GLP-1 receptor. More on the design: expressed in transfected cells; crude membranes. In outline:
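Frozen cell pellets are lysed on ice in hypotonic Tris buffer, pH 7.5, homogenized, and centrifuged to a membrane pellet resuspended at about 1 to 3 mg/mL. Binding is then measured in HEPES-based buffer at pH 7.4, and curves are fitted to give IC50 and Ki.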

The nature of data set [5]: Proteolytic stability assay in 90% pig small intestinal fluid (pSIF). The following applies: 90% pSIF, 37° C. The class given is in vitro ADME. How it is done: Peptides are diluted to a concentration of 0.4 mg/mL in 90% pig small intestinal fluid. After the mixing, 20 μL are immediately removed (time 0 for the time point of pre-incubation). The mixture is then incubated at 37° C. at 150 rpm. […] The sample is centrifuged at 20,000×g for 20 min at 4° C.
The data analysis is performed using MassLynx.

The target of data set [6] is T4, human GLP-1R. The experiment in a line: GLP-1R HEK293 cell membrane [35S]GTPγS binding assay. The class given is biochemical. More on the design: expressed in transfected cells; host or cells: HEK293 cells expressing human GLP-1R; membranes. The method, boiled down: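 Agonist-driven Gαs activation read as [35S]GTPγS ([…]) binding to receptor-expressing HEK293 membranes, 30 min at room temperature, pH 7.4. Detection by anti-Gαs immunocapture on scintillation beads; EC50 derived from four-parameter logistic concentration-response fit.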
(Binding of GTPγS marks nucleotide exchange on a G protein.)

In data set [7] the test system is CD8+ T cell depleted peripheral blood mononuclear cells. Kind of data set: CD4+ T cell assay for potential clinical immunogenicity. The following applies: Examples 10 uM, KLH 0.33 μM, 7 days.
Procedure: The purpose of this study is to determine the relative potential for clinical immunogenicity of a compound.
CD8+ T cell depleted peripheral blood mononuclear cells are prepared and labeled with Carboxyfluorescein Diacetate Succinimidyl Ester (CFSE, Invitrogen) from a cohort of 10 healthy donors. […] Cultures are incubated for 7 days at 37° C. with 5% CO2. On day 7, samples are analyzed by flow cytometry using High Throughput Sampler (HTS). Data is analyzed using FlowJo® Software (FlowJo, LLC, TreeStar).
[8] abbreviates: read-out: hGLcgR Ki, nM (SEM, n).
Where [9] appears, read: read-out: hGIPR Ki, nM (SEM, n).
Setting [10] is: HEK293 cells expressing hGLP-1R, 0.1% Casein, geometric mean, read-out: hGLP1R cAMP Rel EC50 nM (SEM, n).
The mark [11] stands for this setting: HEK293 cells expressing hGIPR, 0.1% Casein, geometric mean, read-out: hGIPR cAMP Rel EC50 nM (SEM, n).
Setting [12] is: read-out: hGLP1R Ki, (nM) (SEM, n).

Chain of human GLP-1 receptor (GLP-1R) (P43220 24-463): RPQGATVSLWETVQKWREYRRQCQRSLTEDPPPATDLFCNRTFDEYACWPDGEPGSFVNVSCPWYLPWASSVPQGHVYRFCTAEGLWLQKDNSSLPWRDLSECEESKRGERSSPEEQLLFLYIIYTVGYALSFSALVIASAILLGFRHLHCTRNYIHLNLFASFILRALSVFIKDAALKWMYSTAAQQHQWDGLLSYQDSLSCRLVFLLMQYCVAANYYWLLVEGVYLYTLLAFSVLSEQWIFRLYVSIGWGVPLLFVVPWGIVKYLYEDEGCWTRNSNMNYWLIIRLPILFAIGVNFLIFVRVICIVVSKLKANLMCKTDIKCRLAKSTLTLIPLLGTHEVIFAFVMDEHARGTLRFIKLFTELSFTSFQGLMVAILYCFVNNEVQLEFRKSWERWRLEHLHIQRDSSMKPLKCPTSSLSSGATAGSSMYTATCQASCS
T4 sequence (P43220 24-463): as above
T1 sequence (P47871 26-477): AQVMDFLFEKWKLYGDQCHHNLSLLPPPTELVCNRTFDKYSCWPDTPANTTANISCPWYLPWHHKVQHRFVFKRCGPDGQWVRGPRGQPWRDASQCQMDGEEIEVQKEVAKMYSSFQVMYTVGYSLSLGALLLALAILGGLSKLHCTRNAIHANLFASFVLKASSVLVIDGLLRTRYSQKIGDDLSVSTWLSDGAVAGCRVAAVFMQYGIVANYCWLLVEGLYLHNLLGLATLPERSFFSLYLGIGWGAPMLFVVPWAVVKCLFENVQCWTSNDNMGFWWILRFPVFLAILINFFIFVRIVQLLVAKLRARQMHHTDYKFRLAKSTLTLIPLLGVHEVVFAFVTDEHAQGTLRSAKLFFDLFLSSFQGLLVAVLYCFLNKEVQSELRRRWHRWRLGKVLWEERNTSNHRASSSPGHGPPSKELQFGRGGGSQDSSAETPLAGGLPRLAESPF

As usually defined, the Ki is a dissociation constant, usually derived from enzyme kinetics or from competition with a known ligand. For orientation: EC50 means the midpoint of the concentration-response curve. As to `CC[C@H](C)[C@H](NC(=O)[C@H](CC(C)C)NC(=O)[C@H](Cc1ccc(O)cc1)NC(=O)[C@H](CCC(=O)O)NC(=O)[C@@H](NC(=O)[C@H](Cc1ccccc1)NC(=O)[C@H](CCC(=O)O)NC(=O)C(C)(C)NC(=O)[C@H](CCC(N)=O)NC(=O)[C@H](C)NC(=O)[C@H](CCCCNC(=O)COCCOCCNC(=O)COCCOCCNC(=O)CC[C@H](NC(=O)CCCCCCCCCCCCCCCCC(=O)O)C(=O)O)NC(=O)[C@H](CCC(=O)O)NC(=O)[C@H](CC(=O)O)NC(=O)[C@H](CC(C)C)NC(=O)[C@](C)(CC(C)C)NC(=O)[C@@H](NC(=O)[C@H](CO)NC(=O)[C@H](Cc1ccc(O)cc1)NC(=O)[C@H](CC(=O)O)NC(=O)[C@H](CO)NC(=O)[C@@H](NC(=O)[C@](C)(Cc1ccccc1F)NC(=O)[C@@H](NC(=O)CNC(=O)[C@H](CCC(=O)O)NC(=O)C(C)(C)NC(=O)[C@@H](N)Cc1ccc(O)cc1)[C@@H](C)O)[C@@H](C)O)[C@@H](C)CC)[C@@H](C)CC)C(=O)N[C@@H](CCC(=O)O)C(=O)NCC(=O)NCC(N)=O` [Example 104] (H-Y[Aib]EGT[αMePhe(2-F)]TSDYSI[αMeL]LDEK([AEEA-AEEA-γGlu-C18 diacid])AQ[Aib]EFIEYLIEGG-NH2), the Ki on human Gcg receptor (setting [8]) amounted to 123 nM; at human GIP receptor (setting [9]), 0.0565 nM; at human GLP-1R [4] (setting [12]), 3.91 nM. Further, the EC50 in [1] (setting [10]) was 0.0248 nM; in data set [2] (setting [11]), 0.0323 nM. Besides, the “percent body weight after 14-day of treatment” value amounted to 94.0% in [3] (dose 0.03 nmol/kg); 94.1% in data set [3] (dose 0.1 nmol/kg); 89.0% in data set [3] (dose 0.3 nmol/kg); 82.7% in [3] (dose 1 nmol/kg); 70.8% in [3] (dose 3 nmol/kg); 71.3% in data set [3] (dose 10 nmol/kg).

With `CC[C@H](C)[C@H](NC(=O)[C@H](CC(C)C)NC(=O)[C@](C)(Cc1ccc(O)cc1)NC(=O)[C@@H](CCC(=O)O)NC(=O)[C@@H](NC(=O)[C@H](Cc1ccccc1)NC(=O)[C@H](CCC(=O)O)NC(=O)C(C)(C)NC(=O)[C@H](CCC(N)=O)NC(=O)[C@H](C)NC(=O)[C@H](CCCCNC(=O)COCCOCCNC(=O)COCCOCCNC(=O)CC[C@H](NC(=O)CCCCCCCCCCCCCCCCC(=O)O)C(=O)O)NC(=O)[C@H](CCCN)NC(=O)[C@H](CC(=O)O)NC(=O)[C@H](CC(C)C)NC(=O)[C@](C)(CC(C)C)NC(=O)[C@@H](NC(=O)[C@H](CO)NC(=O)[C@@H](NC(=O)[C@H](CC(=O)O)NC(=O)[C@H](CO)NC(=O)[C@@H](NC(=O)[C@](C)(Cc1ccccc1F)NC(=O)[C@@H](NC(=O)CNC(=O)[C@H](CCC(=O)O)NC(=O)C(C)(C)NC(=O)[C@@H](N)Cc1ccc(O)cc1)[C@@H](C)O)[C@@H](C)O)C(C)C)[C@@H](C)CC)[C@@H](C)CC)C(=O)N[C@@H](CCC(=O)O)C(=O)NCC(=O)NCC(=O)N1CCC[C@H]1C(=O)N[C@@H](CO)C(=O)N[C@@H](CO)C(=O)NCC(=O)N[C@@H](C)C(=O)N1CCC[C@H]1C(=O)N1CCC[C@H]1C(=O)N1CCC[C@H]1C(=O)N[C@@H](CO)C(N)=O` [Example 5], the figures for the Ki at human Gcg receptor, on human GIP receptor and at human GLP-1R [4] were 519 nM, 0.0611 nM and 0.902 nM, respectively. The EC50 is 0.0164 nM in [1], 0.0309 nM in data set [2] and 0.196 nM at human GLP-1R [6]. Also, in data set [5] (0 min), the “percentage of peptide not cleaved using pSIF” value worked out at 100%. The remaining at 0.5 h, 0.4 mg/mL in data set [5] (pig, 90% pig small intestinal fluid (pSIF), 30 min, read-out: percentage of peptide not cleaved using pSIF) turned out to be 76.9%. In addition, in [5] (pig, 90% pig small intestinal fluid (pSIF), 45 min, read-out: percentage of peptide not cleaved using pSIF), the remaining at 0.75 h, 0.4 mg/mL was found to be 56.8%. In data set [5] (pig, 90% pig small intestinal fluid (pSIF), 60 min, read-out: percentage of peptide not cleaved using pSIF), the remaining at 1 h, 0.4 mg/mL turned out to be 60.7%.

Turning to `CC[C@H](C)[C@H](NC(=O)[C@H](CC(C)C)NC(=O)[C@H](Cc1ccc(O)cc1)NC(=O)[C@H](CCC(=O)O)NC(=O)[C@@H](NC(=O)[C@H](Cc1ccccc1)NC(=O)[C@H](CCC(=O)O)NC(=O)C(C)(C)NC(=O)[C@H](CCC(N)=O)NC(=O)[C@H](C)NC(=O)[C@H](CCCCNC(=O)COCCOCCNC(=O)COCCOCCNC(=O)CC[C@H](NC(=O)CCCCCCCCCCCCCCCCCCC(=O)O)C(=O)O)NC(=O)[C@H](CCCCN)NC(=O)[C@H](CC(=O)O)NC(=O)[C@H](CC(C)C)NC(=O)[C@](C)(CC(C)C)NC(=O)[C@@H](NC(=O)[C@H](CO)NC(=O)[C@H](Cc1ccc(O)cc1)NC(=O)[C@H](CC(=O)O)NC(=O)[C@H](CO)NC(=O)[C@@H](NC(=O)[C@](C)(Cc1ccccc1)NC(=O)[C@@H](NC(=O)CNC(=O)[C@H](CCC(=O)O)NC(=O)C(C)(C)NC(=O)[C@@H](N)Cc1ccc(O)cc1)[C@@H](C)O)[C@@H](C)O)[C@@H](C)CC)[C@@H](C)CC)C(=O)N[C@@H](CCC(=O)O)C(=O)NCC(=O)NCC(=O)N1CCC[C@H]1C(=O)N[C@@H](CO)C(=O)N[C@@H](CO)C(=O)NCC(N)=O` [Example 123] (H-Y[Aib]EGT[αMeF]TSDYSI[αMeL]LDKK([AEEA-AEEA-γGlu-C20 diacid])AQ[Aib]EFIEYLIEGGPSSG-NH2), the inhibition constant (Ki) at human Gcg receptor (setting [8]) was 80.1 nM; at human GIP receptor (setting [9]) it was 0.0469 nM; on human GLP-1R [4] (setting [12]) it was 1.31 nM. The EC50 was 0.0344 nM in data set [1] (setting [10]) and 0.0423 nM in data set [2] (setting [11]). Also, the “percent body weight after 14-day of treatment” value in data set [3] (dose 0.03 nmol/kg) came to 94.7%; in [3] (dose 0.1 nmol/kg), 90.5%; in [3] (dose 0.3 nmol/kg), 86.5%; in [3] (dose 1 nmol/kg), 81.3%; in [3] (dose 3 nmol/kg), 75.1%; in [3] (dose 10 nmol/kg) it was 68.6%.

Consider “keyhole limpet hemocyanin [KLH, reference compound]”, for which, in data set [7], the “% Donor Response (CD4+ T cell response)” value came to 100% and the “Median Response Strength in positive donors (CDI)” value was determined as 391 CDI.
